Series [1] can be described thus: Test of Pharmacokinetics in mice (blood concentration by bioassay). The note with it: I.C.R mice, 40 mg/kg; for AUC (area under blood concentration curve): bioassay.
Protocol: The pharmacokinetics of the compounds of the present invention was determined using mice. […] Blood samples were collected from mice tails at 10 min., 20 min., 30 min., 45 min., 1 hour, 1.5 hours, 2 hours, 3 hours and 4 hours after the administration. […] Blood samples were collected from mice tails in the same manner described above.
The concentrations of each compound in blood were measured using bioassay methods: Agar plate was prepared with agar medium containing 1% Streptococcus Pyogenes 77A culture solution, and the blood samples and the diluted standards (each of which were obtained by dilution of the already-known concentration by two times) were added to wells formed on the plates. The plate was stored at 4° C. for 1 hour to is allow the sample to spread, and incubated at 37° C. for 18 hours. Diameters of each inhibition-circle were measured and then the concentration of the compounds in blood was calculated, based on the calibration curve obtained from the diluted standards.
Series [2] relates to I.C.R. mice. The series is described as follows: Acute Toxicity Test, oral, mice. The class given is in vivo. The note with it: observed 7 days. As to the method: The acute toxicity of the compound of Example 1 was tested using several groups of I.C.R. mice each of 10 mice. 500 mg/kg, 1,000 mg/kg, and 2,000 mg/kg doses of the compound of Example 1 were orally administered. […] Thus, LD50 was placed at a level higher than 2,000 mg/kg. The compound of Example 1 is thus a largely non-toxic antibiotic.
In addition, acute toxicity of the compounds of Examples 10 and 17 was tested using two groups of I.C.R. mice each of 5 mice/2 groups. 1,000 mg/kg, 2,000 mg/kg, and 3,000 mg/kg doses of the compounds of Examples 10 to 17 were orally administered. […] Thus, LD50 was placed at a level higher than 3,000 mg/kg. Therefore, the compounds of Examples 10 to and 17 are non-toxic antibiotics.

Series [3] can be described thus: Chemical Stability Test (HPLC purity on storage). Format: physicochemical. As to the method: 500 mg of the compound prepared in Example 10 was charged into a glass bottle, and HPLC purities of the compound were measured at the condition of 40° C. and a humidity of 75%, at 1 week, 2 week, 3 week, and 1 month. The HPLC purities were obtained by comparing each of the measured HPLC amounts with the initial HPLC amount.

The test system of series [4] is Salmonella typhimurium 179. The series is described as follows: Minimum Inhibitory Concentration (MIC). The settings on record: strain 179. Format: cell-based. The source says: (§1) The metabolite has a wide spectrum of antibacterial activities against Gram-negative and Gram-positive bacteria and excellent antibacterial activities against resistant bacteria such as methicillin-resistant Staphylococcus aurus (MRSA) and quinolone-resistant strains (QRS), as in WO2006/025634 by the present inventors.

In series [5] the test system is Staphylococcus aureus ATCC 29213. Description: Minimum Inhibitory Concentration (MIC). Format: cell-based.
Excerpt: as §1

The test system of series [6] is Klebsiella pneumoniae ATCC 13883. The series is described as follows: Minimum Inhibitory Concentration (MIC). Format: cell-based.
Excerpt: as §1

In series [7] the test system is Klebsiella oxytoca 1082. Description: Minimum Inhibitory Concentration (MIC). Format: cell-based. The settings on record: strain 1082.
Excerpt: as §1

In series [8] the test system is Staphylococcus aureus (2). The series is described as follows: Minimum Inhibitory Concentration (MIC). The settings on record: 2 strains. Format: cell-based.
Excerpt: as §1

In series [9] the test system is Streptococcus ATCC 496 (4). The series is described as follows: Minimum Inhibitory Concentration (MIC). The class given is cell-based.
Excerpt: as §1

In series [10] the test system is GBBS ATCC 12386. The series is described as follows: Minimum Inhibitory Concentration (MIC). Format: cell-based.
Excerpt: as §1

Series [11] concerns Enterobacter cloacae ATCC 13880. The series is described as follows: Minimum Inhibitory Concentration (MIC). The class given is cell-based.
Excerpt: as §1

Series [12] deals with Moraxella catarrhalis AMP S(3). The series is described as follows: Minimum Inhibitory Concentration (MIC). The class given is cell-based. The note with it: 3 strains.
Excerpt: as §1

The test system of series [13] is Streptococcus pneumoniae Pen. S (4). The series is described as follows: Minimum Inhibitory Concentration (MIC). Format: cell-based. The settings on record: 4 strains.
Excerpt: as §1

In series [14] the test system is Streptococcus faecium (1). The series is described as follows: Minimum Inhibitory Concentration (MIC). The class given is cell-based. The settings on record: 1 strain.
Excerpt: as §1

The test system of series [15] is Streptococcus pneumoniae Pen. R (4). Description: Minimum Inhibitory Concentration (MIC). The settings on record: 4 strains. Format: cell-based.
Excerpt: as §1

In series [16] the test system is Enterobacter cloacae P 99(2)3. The series is described as follows: Minimum Inhibitory Concentration (MIC). The class given is cell-based.
Excerpt: as §1

The subject of series [17] is Moraxella catarrhalis AMP R(3). Description: Minimum Inhibitory Concentration (MIC). The class given is cell-based. More on the design: unit not given here. The note with it: 3 strains.
Excerpt: as §1

The subject of series [18] is Streptococcus Levo. R (4). Description: Minimum Inhibitory Concentration (MIC). Format: cell-based. More on the design: unit not given here. The note with it: 4 strains.
Excerpt: as §1

Series [19] deals with Klebsiella pneumoniae (4). The series is described as follows: Minimum Inhibitory Concentration (MIC). More on the design: unit not given here. The class given is cell-based. The settings on record: 4 strains.
Excerpt: as §1

For series [20], the system named is Staphylococcus aureus (10), MRSA. The series is described as follows: Minimum Inhibitory Concentration (MIC). The class given is cell-based. The arrangement: unit not given here. The note with it: 10 strains.
Excerpt: as §1

The subject of series [21] is Staphylococcus aureus (5), QRS. Description: Minimum Inhibitory Concentration (MIC). The settings on record: 5 strains. The arrangement: unit not given here. The class given is cell-based.
Excerpt: as §1

The subject of series [22] is Escherichia coli (4). Description: Minimum Inhibitory Concentration (MIC). Format: cell-based. The arrangement: unit not given here. The settings on record: 4 strains.
Excerpt: as §1

Series [23] concerns Streptococcus pyogenes (2). The series is described as follows: Minimum Inhibitory Concentration (MIC). The class given is cell-based. The arrangement: unit not given here. The note with it: 2 strains.
Excerpt: as §1

Series [24] concerns Streptococcus Levo. S (4). The series is described as follows: Minimum Inhibitory Concentration (MIC). More on the design: unit not given here. The class given is cell-based. The settings on record: 4 strains.
Excerpt: as §1

[25] abbreviates: oral, 500, 1,000 and 2,000 mg/kg.
Setting [26] is: oral, 1,000, 2,000 and 3,000 mg/kg.

≈ marks a conversion by molar mass, not a printed value.

In general, MIC refers to the smallest concentration in the dilution series that meets the test's criterion for growth inhibition.

Take “1-(isopropyloxycarbonyloxy)ethyl(1R,5S,6S)-2-[(1-(4-fluorobenzyl)azetidin-3-yl)thio]-6-[(R)-1-hydroxyethyl]-1-methyl-carbapen-2-em-3-carboxylate [Example 2]”: in series [1], the “ratio of oral/subcutaneous AUCs” value is “about 54%”. In series [1] (PO), the “Cmax (maximum blood concentration)” value was determined as 72.8 µg/mL, the “T1/2 (half time of blood concentration)” value turned out to be 1.15 h, the “Tmax (time at the point of maximum blood concentration)” value (“Tmax” below) was determined as 1.00 h and the “AUC (area under blood concentration curve)” value is 94800 ng·h/mL. In series [1] (SC), the “Cmax (maximum blood concentration)” value came out at 66.4 µg/mL, the “T1/2 (half time of blood concentration)” value was 3.92 h, the “Tmax” value was determined as 0.75 h and the “AUC (area under blood concentration curve)” value turned out to be 174000 ng·h/mL.
Take `C[C@@H](O)[C@H]1C(=O)N2C(C(=O)OCOC(=O)C(C)(C)C)=C(SC3CN(Cc4ccc(F)cc4)C3)[C@H](C)[C@H]12` [Example 1, pivaloyloxymethyl(1R,5S,6S)-2-[(1-(4-fluorobenzyl)azetidin-3-yl)thio]-6-[(R)-1-hydroxyethyl]-1-methyl-carbapen-2-em-3-carboxylate]: in series [2] (setting [25]), the LD50 entry is “higher than 2,000 mg/kg”; the “body temperature change and weight change” value was “no distinct body temperature change nor weight loss were observed”; the death result is “no mice died”. In addition, the “ratio of oral/subcutaneous AUCs” value in [1] is reported as “about 52%”. Also, in [1] (PO), the “Cmax (maximum blood concentration)” value turned out to be 88.1 µg/mL, the “T1/2 (half time of blood concentration)” value came to 0.931 h, the “Tmax” value was 0.38 h and the “AUC (area under blood concentration curve)” value was determined as 117000 ng·h/mL. Also, in [1] (SC), the “Cmax (maximum blood concentration)” value is 97.9 µg/mL, the “T1/2 (half time of blood concentration)” value was found to be 6.28 h, the “Tmax” value was determined as 1.76 h and the “AUC (area under blood concentration curve)” value was 226000 ng·h/mL.
`CC(OC(=O)OC1CCCCC1)OC(=O)C1=C(SC2CN(Cc3ccc(F)cc3)C2)[C@H](C)[C@@H]2[C@@H]([C@@H](C)O)C(=O)N12` (stereo partly drawn) [Example 3, 1-(cyclohexyloxycarbonyloxy)ethyl(1R,5S,6S)-2-[(1-(4-fluorobenzyl)azetidin-3-yl)thio]-6-[(R)-1-hydroxyethyl]-1-methyl-carbapen-2-em-3-carboxylate]: the “ratio of oral/subcutaneous AUCs” value in series [1] was “about 113%”. In addition, in series [1] (PO), the “Cmax (maximum blood concentration)” value came to 39.0 µg/mL, the “T1/2 (half time of blood concentration)” value stood at 1.43 h, the “Tmax” value stood at 0.59 h and the “AUC (area under blood concentration curve)” value is 64500 ng·h/mL. In series [1] (SC), the “Cmax (maximum blood concentration)” value amounted to 16.2 µg/mL, the “T1/2 (half time of blood concentration)” value was 1.05 h, the “Tmax” value was 2.50 h and the “AUC (area under blood concentration curve)” value came out at 56900 ng·h/mL.
Regarding `C[C@@H](O)[C@H]1C(=O)N2C(C(=O)OCOC(=O)C(C)(C)C)=C(SC3CN(Cc4ccc(F)cc4)C3)[C@H](C)[C@H]12.O=P(O)(O)O` [Example 10, Phosphoric Acid Salt of pivaloyloxymethyl(1R,5S,6S)-2-[(1-(4-fluorobenzyl)azetidin-3-yl)thio]-6-[(R)-1-hydroxyethyl]-1-methyl-carbapen-2-em-3-carboxylate], the “body temperature change and weight change” value in [2] (setting [26]) is listed as “no body distinct temperature change nor weight loss were observed”. In series [2] (setting [26]), the death entry is listed as “no mice died”. Moreover, the “HPLC Purity” value came to 99.69% in series [3] (40° C., humidity 75%, 1 month); 99.85% in series [3] (40° C., humidity 75%, 1 week); 99.78% in [3] (40° C., humidity 75%, 2 week); 99.74% in [3] (40° C., humidity 75%, 3 week); 99.83% in [3] (Initial).
Turning to `C[C@@H](O)[C@H]1C(=O)N2C(C(=O)OCOC(=O)C(C)(C)C)=C(SC3CN(Cc4ccc(F)cc4)C3)[C@H](C)[C@H]12.O=C(O)/C=C/C(=O)O` [Example 17, Fumaric Acid Salt of pivaloyloxymethyl(1R,5S,6S)-2-[(1-(4-fluorobenzyl)azetidin-3-yl)thio]-6-[(R)-1-hydroxyethyl]-1-methyl-carbapen-2-em-3-carboxylate], in series [2] (setting [26]), the “body temperature change and weight change” value is reported as “no body distinct temperature change nor weight loss were observed”; the death result is “no mice died”.
With `C[C@@H](O)[C@H]1C(=O)N2C(C(=O)O)=C(SC3CN(Cc4ccc(F)cc4)C3)[C@H](C)[C@H]12` [Preparation Example 4, (1R,5S,6S)-2-[(1-(4-fluorobenzyl)azetidin-3-yl)thio]-6-[(R)-1-hydroxyethyl]-1-methyl-carbapen-2-em-3-carboxylic acid], the MIC in series [4] amounted to 0.049 µg/mL (≈ 0.121 µM); in [5] it was 0.015 µg/mL (≈ 0.0369 µM); in series [6], 0.122 µg/mL (≈ 0.301 µM); in series [7] it was 0.049 µg/mL (≈ 0.121 µM); in series [8] it was 0.002 µg/mL (≈ 0.00492 µM); in series [9], 0.03 µg/mL (≈ 0.0738 µM). Also, the MIC in series [10] was 0.03 µg/mL (≈ 0.0738 µM); in [11], 2 µg/mL (≈ 4.92 µM); in [12], below 0.008 µg/mL; in [13] it was below 0.008 µg/mL; in series [14], 1.56 µg/mL (≈ 3.85 µM); in series [15] it was 0.12 µg/mL (≈ 0.295 µM). The MIC in [16] was 0.049 µg/mL (≈ 0.121 µM); in series [17], 0.03-0.12; in [18] it was 0.006-0.12; in [19], 0.06-0.25; in series [20] it was 0.025-3.125; in series [21], 0.049-0.391. Besides, the MIC is 0.025-0.098 in [22], 0.013-0.025 in series [23] and <0.008-0.25 in series [24]. Besides, the entries for the “Cmax (maximum blood concentration)” value in series [1] (PO) and in series [1] (SC) were 3.97 µg/mL and 68.5 µg/mL, respectively. Besides, the figures for the “T1/2 (half time of blood concentration)” value in [1] (PO) and in [1] (SC) were 1.32 h and 0.76 h, respectively. In addition, the “Tmax” value in series [1] (PO) stood at 0.56 h; in series [1] (SC), 0.38 h. Further, the “AUC (area under blood concentration curve)” value in series [1] (PO) came out at 8280 ng·h/mL; in [1] (SC), 83240 ng·h/mL.

Source of the values: patent publication US20110118229A1, “2-ARYLMETHYLAZETIDINE-CARBAPENEM-3-CARBOXYLIC ACID ESTER DERIVATIVE OR ITS SALT, PROCESS FOR THE PREPARATION THEREOF AND PHARMACEUTICAL COMPOSITION COMPRISING THE SAME” (KUKJE PHARM. IND. CO., LTD., priority 2007, published 2011).
